Experimental data taken from ChEMBL document CHEMBL1132331, “Synthesis and biological activity of the superestrogen (E)-17-oximino-3-O-sulfamoyl-1,3,5(10)-estratriene: x-ray crystal structure of (E)-17-oximino-3-hydroxy-1,3,5(10)-estratriene” (J Med Chem, 1999).

Assays:
Rattus norvegicus = species: Rattus norvegicus; assay: Effect on uterine weight gain in ovariectomized rat, expressed as uterine weight/total body weight X100 (0.036+/-0.001); type: functional
Steryl-sulfatase = target: T1, Steryl-sulfatase (Homo sapiens, UniProt P08842); assay: In vitro inhibition of estrone sulfatase in placental microsomes; set-up: species or system Placenta
T1 sequence (P08842 whole entry): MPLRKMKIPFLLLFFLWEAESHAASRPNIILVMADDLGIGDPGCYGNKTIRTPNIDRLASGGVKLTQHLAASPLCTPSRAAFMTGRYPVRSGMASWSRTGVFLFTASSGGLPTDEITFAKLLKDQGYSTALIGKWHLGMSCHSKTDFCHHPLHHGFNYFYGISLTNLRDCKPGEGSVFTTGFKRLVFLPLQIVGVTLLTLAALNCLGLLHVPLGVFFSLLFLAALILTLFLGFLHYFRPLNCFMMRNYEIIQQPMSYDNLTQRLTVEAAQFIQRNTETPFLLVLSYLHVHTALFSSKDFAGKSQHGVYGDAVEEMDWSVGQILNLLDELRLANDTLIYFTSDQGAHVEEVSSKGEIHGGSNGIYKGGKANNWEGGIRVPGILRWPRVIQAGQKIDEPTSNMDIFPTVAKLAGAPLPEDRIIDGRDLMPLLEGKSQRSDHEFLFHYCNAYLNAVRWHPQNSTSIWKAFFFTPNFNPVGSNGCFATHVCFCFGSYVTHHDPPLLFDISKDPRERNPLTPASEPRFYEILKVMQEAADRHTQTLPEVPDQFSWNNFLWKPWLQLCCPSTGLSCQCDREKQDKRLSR

[1] = target: T2, Steryl-sulfatase (Rattus norvegicus) (UniProt P15589); assay: In vivo inhibition of estrone sulfatase in rat liver after oral administration; type: organism-based; conditions: concentration not given here
T2 sequence (whole entry): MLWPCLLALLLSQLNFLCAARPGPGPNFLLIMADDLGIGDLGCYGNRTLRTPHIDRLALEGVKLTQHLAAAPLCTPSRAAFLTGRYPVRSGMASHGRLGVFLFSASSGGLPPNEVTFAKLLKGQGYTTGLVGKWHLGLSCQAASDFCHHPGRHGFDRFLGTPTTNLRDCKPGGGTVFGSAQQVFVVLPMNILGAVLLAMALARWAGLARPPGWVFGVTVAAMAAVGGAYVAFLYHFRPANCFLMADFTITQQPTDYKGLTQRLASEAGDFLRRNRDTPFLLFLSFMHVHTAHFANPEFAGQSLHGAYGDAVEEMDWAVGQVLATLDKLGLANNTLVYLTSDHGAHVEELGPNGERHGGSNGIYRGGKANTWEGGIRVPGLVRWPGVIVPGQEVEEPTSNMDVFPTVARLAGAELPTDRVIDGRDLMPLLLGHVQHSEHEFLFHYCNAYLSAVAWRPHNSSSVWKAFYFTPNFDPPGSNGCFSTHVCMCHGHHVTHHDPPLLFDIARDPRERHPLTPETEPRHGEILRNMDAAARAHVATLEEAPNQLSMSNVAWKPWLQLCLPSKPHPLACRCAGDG

[2] = target: T3, Steryl-sulfatase (Homo sapiens) (UniProt P08842); assay: Inhibition of estrone sulfatase in MCF-7 breast cancer cells at 0.1 uM; type: cell-based; conditions: MCF7
T3 sequence (whole entry): T1 sequence (P08842 whole entry)

| Structure (SMILES) | Average uterine weight (Rattus norvegicus) | IC50 (Steryl-sulfatase) [nM] | inhibition [1] [%] | inhibition [2] [%] |
| --- | --- | --- | --- | --- |
| C[C@]12CC[C@@H]3c4ccc(OS(N)(=O)=O)cc4CC[C@H]3[C@@H]1CCC2=O [EMATE] | 0.11 | 93 | 99 | – |
| C[C@]12CC[C@@H]3c4ccc(OS(N)(=O)=O)cc4CC[C@H]3[C@@H]1CC/C2=N\O | 0.15 | 80 | 99 | 99 |
